Experimental data taken from ChEMBL document CHEMBL1201862, “PubChem BioAssay data set” (2004).
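Test compounds were applied to cells in 96-well plates for 48 hours at 5 doses. GI50 marks 50% less growth.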 The source made the active and inactive calls. Cut-off read from the data, not from the text of the source: active = GI50 up to about 1.1 µM and inactive = higher.

Tests used:
Assay in all cases: growth of human tumour cells (NCI), 48 h
SK-MEL-5 = system: SK-MEL-5
T47D = system: T47D
SR = system: SR
PC-3 = system: PC-3
MDA-N = system: MDA-N
SW-620 = system: SW-620
CCRF-CEM = system: CCRF-CEM
RXF 393 = system: RXF 393
MCF7 = system: MCF7
OVCAR-8 = system: OVCAR-8
DU-145 = system: DU-145
MDA-MB-435 = system: MDA-MB-435
OVCAR-4 = system: OVCAR-4
MDA-MB-231 = system: MDA-MB-231
SF-268 = system: SF-268
NCI/ADR-RES = system: NCI/ADR-RES
NCI-H522 = system: NCI-H522
Hs-578T = system: Hs-578T
BT-549 = system: BT-549

Compound | GI50 (SK-MEL-5) | GI50 (T47D) | GI50 (SR) | GI50 (PC-3) | GI50 (MDA-N) | GI50 (SW-620) | GI50 (CCRF-CEM) | GI50 (RXF 393) | GI50 (MCF7) | GI50 (OVCAR-8) | GI50 (DU-145) | GI50 (MDA-MB-435) | GI50 (OVCAR-4) | GI50 (MDA-MB-231) | GI50 (SF-268) | GI50 (NCI/ADR-RES) | GI50 (NCI-H522) | GI50 (Hs-578T) | GI50 (BT-549)
COC(=O)CSc1nc2[nH]c(SC)c(C(N)=O)c2c(=O)n1-c1ccccc1 | > 10 µM (inactive) | > 10 µM (inactive) | > 10 µM (inactive) | > 10 µM (inactive) | > 10 µM (inactive) | > 10 µM (inactive) | > 10 µM (inactive) | > 10 µM (inactive) | > 10 µM (inactive) | > 10 µM (inactive) | > 10 µM (inactive) | > 10 µM (inactive) | > 10 µM (inactive) | > 10 µM (inactive) | > 10 µM (inactive) | – | – | – | –
C=CC1(c2ccc3ccccc3c2)OCC(CC)O1 (configuration not stated) | 47 µM (inactive) | 35 µM (inactive) | 19.8 µM (inactive) | 28 µM (inactive) | 24.8 µM (inactive) | 46.2 µM (inactive) | 29.6 µM (inactive) | 53.8 µM (inactive) | 55 µM (inactive) | > 100 µM (inactive) | > 100 µM (inactive) | 63.4 µM (inactive) | 55.6 µM (inactive) | 0.207 µM (active) | 71.6 µM (inactive) | > 100 µM (inactive) | 40.6 µM (inactive) | 22.4 µM (inactive) | –
ClCCCN1CCCCC1CCl (configuration not stated) | > 100 µM (inactive) | – | 24.8 µM (inactive) | – | – | > 100 µM (inactive) | 20.9 µM (inactive) | > 100 µM (inactive) | – | > 100 µM (inactive) | – | – | > 100 µM (inactive) | – | 53.2 µM (inactive) | – | > 100 µM (inactive) | – | –
C[C@]12CC[C@H]3[C@@H](CC=C4C[C@@H](O)CC[C@@]43C)[C@@H]1C/C(=C\c1ccc([N+](=O)[O-])cc1)[C@@H]2O | 6.81 µM (inactive) | 4.38 µM (inactive) | 8.41 µM (inactive) | 14.3 µM (inactive) | – | 26.7 µM (inactive) | 5.14 µM (inactive) | 9.71 µM (inactive) | 6.71 µM (inactive) | 10.9 µM (inactive) | 11 µM (inactive) | 22.5 µM (inactive) | < 0.01 µM (active) | 7.93 µM (inactive) | 26.1 µM (inactive) | 12.5 µM (inactive) | 9.98 µM (inactive) | 16.9 µM (inactive) | 14.6 µM (inactive)
CC(C)(CCCCC(C)(C)C1NC(=O)N1)C1NC(=O)N1 | > 10 µM (inactive) | > 10 µM (inactive) | – | > 10 µM (inactive) | > 10 µM (inactive) | > 10 µM (inactive) | > 10 µM (inactive) | > 10 µM (inactive) | > 10 µM (inactive) | > 10 µM (inactive) | > 10 µM (inactive) | > 10 µM (inactive) | > 10 µM (inactive) | > 10 µM (inactive) | > 10 µM (inactive) | > 10 µM (inactive) | > 10 µM (inactive) | > 10 µM (inactive) | –
CCCc1c(-c2ccccc2)[nH]c2ccccc2c1=O | – | 25.9 µM (inactive) | > 100 µM (inactive) | > 100 µM (inactive) | 41.4 µM (inactive) | > 100 µM (inactive) | 41.3 µM (inactive) | > 100 µM (inactive) | 36.7 µM (inactive) | – | > 100 µM (inactive) | 37.3 µM (inactive) | > 100 µM (inactive) | 32.2 µM (inactive) | 72.4 µM (inactive) | – | – | > 100 µM (inactive) | 40.5 µM (inactive)
COc1cc2c(cc1OC)[C@@H]1[C@H](C#N)C(=O)C(C)(C)N1CC2 | > 100 µM (inactive) | – | > 100 µM (inactive) | > 100 µM (inactive) | > 100 µM (inactive) | > 100 µM (inactive) | > 100 µM (inactive) | – | > 100 µM (inactive) | > 100 µM (inactive) | > 100 µM (inactive) | > 100 µM (inactive) | > 100 µM (inactive) | 28.6 µM (inactive) | – | > 100 µM (inactive) | > 100 µM (inactive) | > 100 µM (inactive) | > 100 µM (inactive)
CCOC(=O)C1=C(c2ccccc2)N(C(C)=O)Cc2ccccc21 | 12.6 µM (inactive) | – | 9.73 µM (inactive) | – | – | 34.8 µM (inactive) | 16.4 µM (inactive) | 19.4 µM (inactive) | – | 21.3 µM (inactive) | – | – | 16.7 µM (inactive) | – | 19 µM (inactive) | – | 16.9 µM (inactive) | – | –
N#Cc1nc(-c2cccc(-c3nc(C#N)c(N)o3)n2)oc1N | > 100 µM (inactive) | > 100 µM (inactive) | > 100 µM (inactive) | > 100 µM (inactive) | > 100 µM (inactive) | > 100 µM (inactive) | 21.2 µM (inactive) | – | > 100 µM (inactive) | > 100 µM (inactive) | > 100 µM (inactive) | > 100 µM (inactive) | > 100 µM (inactive) | > 100 µM (inactive) | > 100 µM (inactive) | > 100 µM (inactive) | > 100 µM (inactive) | > 100 µM (inactive) | –
COC1=C(OC)C(=O)c2cc(SC)c(=O)c(SC)cc2C1=O | 12.4 µM (inactive) | – | 4.33 µM (inactive) | – | – | 33.5 µM (inactive) | 2.34 µM (inactive) | 4.9 µM (inactive) | – | 12.1 µM (inactive) | – | – | 12.2 µM (inactive) | – | 12.8 µM (inactive) | – | 17.1 µM (inactive) | – | –
COc1ccc(C(O)/C(=N\NC(N)=S)c2nc3ccc([N+](=O)[O-])cc3nc2O)cc1OC (configuration not stated) | – | – | – | – | – | > 100 µM (inactive) | > 100 µM (inactive) | > 100 µM (inactive) | – | > 100 µM (inactive) | – | – | > 100 µM (inactive) | – | > 100 µM (inactive) | – | 32.4 µM (inactive) | – | –
COc1cc2c(cc1OC)C1Cc3cc(OC)c(OC)cc3C(C2)O1 | – | 58.5 µM (inactive) | – | > 100 µM (inactive) | > 100 µM (inactive) | > 100 µM (inactive) | 60.1 µM (inactive) | > 100 µM (inactive) | > 100 µM (inactive) | > 100 µM (inactive) | > 100 µM (inactive) | > 100 µM (inactive) | > 100 µM (inactive) | 29.1 µM (inactive) | > 100 µM (inactive) | > 100 µM (inactive) | – | – | > 100 µM (inactive)
Cc1cc(C)c(NC(=O)/C=C/c2ccccc2)c(C)c1 | – | – | 7.28 µM (inactive) | > 100 µM (inactive) | – | > 100 µM (inactive) | > 100 µM (inactive) | > 100 µM (inactive) | > 100 µM (inactive) | > 100 µM (inactive) | – | > 100 µM (inactive) | 94.6 µM (inactive) | – | > 100 µM (inactive) | 29.3 µM (inactive) | 6 µM (inactive) | 57.7 µM (inactive) | > 100 µM (inactive)
CCC(=O)Nc1ccc(/N=C/c2cccc(Oc3ccccc3)c2)cc1 | 33 µM (inactive) | 91 µM (inactive) | 16.2 µM (inactive) | 64.4 µM (inactive) | 40.1 µM (inactive) | 37 µM (inactive) | 12.6 µM (inactive) | 50.9 µM (inactive) | 44.1 µM (inactive) | 22.3 µM (inactive) | 46.2 µM (inactive) | 47.3 µM (inactive) | 55.3 µM (inactive) | – | 42.1 µM (inactive) | 42.3 µM (inactive) | > 100 µM (inactive) | > 100 µM (inactive) | > 100 µM (inactive)
